# Reference: article doi:10.1101/2022.04.17.488584v1, “A cobB like protein in Oryza sativa indica regulates the mitochondrial machinery under stress conditions” (biorxiv, 2022)
# Like-named read-outs stand apart in the source and are kept apart here.
# Experiments:
# [1] = target: T1, OscobB (Oryza sativa, UniProt A2XBC4); experiment: dot blot deacetylation assay; format: biochemical
# T1 construct: gene OsI_09569; cobB-like portion 269-501 of OsI_09569, untagged, modified pET28a (insert 711 bp), E. coli BL21(DE3), ion exchange; 25-28 kDa monomer
# T1 sequence (A2XBC4 269-501): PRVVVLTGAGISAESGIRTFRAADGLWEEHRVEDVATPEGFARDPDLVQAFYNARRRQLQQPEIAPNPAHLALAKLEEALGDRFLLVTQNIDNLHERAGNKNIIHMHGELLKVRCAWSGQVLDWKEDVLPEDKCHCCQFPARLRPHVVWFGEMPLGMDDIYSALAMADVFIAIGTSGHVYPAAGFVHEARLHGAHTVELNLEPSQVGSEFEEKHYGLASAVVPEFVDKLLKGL
# [2] = target: T1, OscobB; experiment: intrinsic tryptophan fluorescence quenching; format: binding
# [3] = target: T1, OscobB; experiment: dot blot deacetylation assay; format: biochemical; remark: listed apart in the source
structure (smiles),measurement,setting,value
Nc1ncnc2c1ncn2[C@@H]1O[C@H](COP(=O)(O)OP(=O)(O)OC[C@H]2OC(O)[C@H](O)[C@@H]2O)[C@@H](O)[C@H]1O (stereo partly shown) [ADP-ribose],IC50,"[1]; NAD+, analog of product O-acetyl-ADP-ribose",410 µM
NC(=O)c1ccc[n+]([C@@H]2O[C@H](COP(=O)(O)OP(=O)(O)OC[C@H]3O[C@@H](n4cnc5c(N)ncnc54)[C@H](O)[C@@H]3O)[C@@H](O)[C@H]2O)c1 [NAD^+],Kd,[2],30 ± 2 µM
NC(=O)c1cccnc1 [NAM],IC50,[1],253 ± 45 µM
Oc1ccc(/C=C/c2cc(O)cc(O)c2)cc1 [resveratrol],EC50,[3],51 µM
